# Key:
# [1] = test system: MCF-7 cell line; experiment: In vitro antiproliferative activity, MTT assay, MCF-7; type: cell-based; conditions: Homo sapiens, MCF7, 48 h
# Description: (§1) HCT116, MCF-7 and B16 cell lines were plated on 96-well plates at a density of 5000 per well and incubated overnight. […] After 48 h, 0.5% MTT (Amresco, Solon, OH, USA) solution was added to each well, and further incubation for 4 h, then cells were centrifuged at 2500 rpm for 15 min and removed from the culture medium. And add 150 μL DMSO to dissolve the formazan. After mixing for 5 min, optical density was detected at 570 nm on a microplate reader (Thermo, Waltham, MA, USA).
# [2] = test system: B16 cell line; experiment: In vitro antiproliferative activity, MTT assay, B16; type: cell-based; conditions: Mus musculus, 48 h
# Description: as §1
# [3] = biological target: VEGFR-2 (Homo sapiens, UniProt P35968); experiment: VEGFR-2 inhibitory assay (caliper mobility shift assay)
# Description: (§3) Each of these compounds was dissolved in DMSO at 10 mM, diluted to 50× of the final desired highest inhibitor concentration in reaction by 100% DMSO, and 100 μL of each dilution was added to one well on 96-well storage plate, and diluted by transferring 10 μL to 90 μL of 100% DMSO in the next well. Besides, 100 μL of 100% DMSO was added to two empty wells for no compound control and no enzyme control in the same 96-well plate respectively. The plate was marked as source plate. 10 μL of each compound was transferred from the source plate to a new 96-well plate, which was marked as the intermediate plate. Next, 90 μL of 1× kinase base buffer was added to each well of the intermediate plate, and mixed by shaking vigorously for 10 min. A total of 5 μL of each well from the 96-well intermediate plate was transferred to a 384-well plate in duplicate.
# (§4) Kinase reaction: kinase in 1× kinase base buffer, FAM-labeled peptide and ATP in the 1× kinase base buffer were added, then 10 μL of 2.5× enzyme solution was added to each well of the 384-well assay plate. After incubating at room temperature for 10 min, 10 μL of 2.5× peptide solution was added to each well of the 384-well assay plate. […] Finally, the kinase reactions were quenched with 25 μL of EDTA and the plates were washed. The dates were collected and converted with the caliper program.
# [4] = biological target: EGFR (Homo sapiens, UniProt P00533); experiment: EGFR inhibitory assay (caliper mobility shift assay)
# Description: as §3, §4
# [5] = test system: HCT116 cell line; experiment: In vitro antiproliferative activity, MTT assay, HCT116; type: cell-based; conditions: Homo sapiens, HCT-116, 48 h
# Description: as §1
# [6] = test system: B16 melanoma xenograft; experiment: In vivo antitumor activity, B16 melanoma xenograft model; conditions: 90 mg/kg for 14 days (text: orally; table footnote: i.p.), C57BL/6J mice
# Description: (§2) Male C57BL/6J mice were employed to establish the xenograft tumor model by subcutaneous injection (S.C.) of 6 × 10^6 B16 cells. […] In the end of treatment, the mice were sacrificed and the tumor were peeled off and weighted. The inhibition rate of tumor growth was calculated. All animal protocols were conformed to the Guidelines for the Care and Use of Laboratory Animals approved by the Animal Care and Use Committee of Yantai University.
# [7] = Body weight in B16 melanoma xenograft model; type: in vivo; conditions: B16 tumor-bearing C57BL/6J mice; for Body Weight End: 90 mg/kg for 14 days, end of treatment; for Body Weight Initial: 90 mg/kg, before treatment
# Description: as §2
# VEGFR-2, sequence (P35968 20-1356): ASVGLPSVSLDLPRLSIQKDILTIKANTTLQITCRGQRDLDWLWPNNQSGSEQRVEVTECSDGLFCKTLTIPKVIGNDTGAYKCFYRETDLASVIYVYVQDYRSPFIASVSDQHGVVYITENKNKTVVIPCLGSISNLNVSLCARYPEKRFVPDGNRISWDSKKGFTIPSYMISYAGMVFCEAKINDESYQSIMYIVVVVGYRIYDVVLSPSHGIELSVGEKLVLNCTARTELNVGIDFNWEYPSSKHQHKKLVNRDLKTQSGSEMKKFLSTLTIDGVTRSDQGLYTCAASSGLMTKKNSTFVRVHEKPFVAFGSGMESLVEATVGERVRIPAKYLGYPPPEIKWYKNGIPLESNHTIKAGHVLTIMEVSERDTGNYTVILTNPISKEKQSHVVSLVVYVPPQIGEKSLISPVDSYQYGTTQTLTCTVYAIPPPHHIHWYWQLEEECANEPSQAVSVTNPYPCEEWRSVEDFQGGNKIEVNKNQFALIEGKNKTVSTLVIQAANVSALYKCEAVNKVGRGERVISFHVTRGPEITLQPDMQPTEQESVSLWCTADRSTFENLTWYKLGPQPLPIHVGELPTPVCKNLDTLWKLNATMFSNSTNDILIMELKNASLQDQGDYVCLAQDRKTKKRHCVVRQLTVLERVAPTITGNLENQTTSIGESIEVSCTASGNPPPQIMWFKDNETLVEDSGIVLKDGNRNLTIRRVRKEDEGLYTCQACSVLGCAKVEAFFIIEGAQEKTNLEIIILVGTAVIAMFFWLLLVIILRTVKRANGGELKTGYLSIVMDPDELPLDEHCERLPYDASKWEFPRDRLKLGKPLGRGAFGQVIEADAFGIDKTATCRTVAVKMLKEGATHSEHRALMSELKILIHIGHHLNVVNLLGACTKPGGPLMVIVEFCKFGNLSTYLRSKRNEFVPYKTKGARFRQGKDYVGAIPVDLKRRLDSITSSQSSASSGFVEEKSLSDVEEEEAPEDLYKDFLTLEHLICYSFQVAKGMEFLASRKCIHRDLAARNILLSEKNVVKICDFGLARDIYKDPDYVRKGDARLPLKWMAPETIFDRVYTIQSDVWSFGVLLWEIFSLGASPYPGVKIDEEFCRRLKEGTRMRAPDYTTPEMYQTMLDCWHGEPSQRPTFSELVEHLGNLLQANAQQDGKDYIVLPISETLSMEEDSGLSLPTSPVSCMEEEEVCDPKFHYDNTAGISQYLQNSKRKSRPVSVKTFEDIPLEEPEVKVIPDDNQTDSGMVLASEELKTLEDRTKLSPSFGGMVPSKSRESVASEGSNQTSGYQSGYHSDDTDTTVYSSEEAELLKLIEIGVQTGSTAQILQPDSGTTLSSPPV
# EGFR, sequence (P00533 25-1210): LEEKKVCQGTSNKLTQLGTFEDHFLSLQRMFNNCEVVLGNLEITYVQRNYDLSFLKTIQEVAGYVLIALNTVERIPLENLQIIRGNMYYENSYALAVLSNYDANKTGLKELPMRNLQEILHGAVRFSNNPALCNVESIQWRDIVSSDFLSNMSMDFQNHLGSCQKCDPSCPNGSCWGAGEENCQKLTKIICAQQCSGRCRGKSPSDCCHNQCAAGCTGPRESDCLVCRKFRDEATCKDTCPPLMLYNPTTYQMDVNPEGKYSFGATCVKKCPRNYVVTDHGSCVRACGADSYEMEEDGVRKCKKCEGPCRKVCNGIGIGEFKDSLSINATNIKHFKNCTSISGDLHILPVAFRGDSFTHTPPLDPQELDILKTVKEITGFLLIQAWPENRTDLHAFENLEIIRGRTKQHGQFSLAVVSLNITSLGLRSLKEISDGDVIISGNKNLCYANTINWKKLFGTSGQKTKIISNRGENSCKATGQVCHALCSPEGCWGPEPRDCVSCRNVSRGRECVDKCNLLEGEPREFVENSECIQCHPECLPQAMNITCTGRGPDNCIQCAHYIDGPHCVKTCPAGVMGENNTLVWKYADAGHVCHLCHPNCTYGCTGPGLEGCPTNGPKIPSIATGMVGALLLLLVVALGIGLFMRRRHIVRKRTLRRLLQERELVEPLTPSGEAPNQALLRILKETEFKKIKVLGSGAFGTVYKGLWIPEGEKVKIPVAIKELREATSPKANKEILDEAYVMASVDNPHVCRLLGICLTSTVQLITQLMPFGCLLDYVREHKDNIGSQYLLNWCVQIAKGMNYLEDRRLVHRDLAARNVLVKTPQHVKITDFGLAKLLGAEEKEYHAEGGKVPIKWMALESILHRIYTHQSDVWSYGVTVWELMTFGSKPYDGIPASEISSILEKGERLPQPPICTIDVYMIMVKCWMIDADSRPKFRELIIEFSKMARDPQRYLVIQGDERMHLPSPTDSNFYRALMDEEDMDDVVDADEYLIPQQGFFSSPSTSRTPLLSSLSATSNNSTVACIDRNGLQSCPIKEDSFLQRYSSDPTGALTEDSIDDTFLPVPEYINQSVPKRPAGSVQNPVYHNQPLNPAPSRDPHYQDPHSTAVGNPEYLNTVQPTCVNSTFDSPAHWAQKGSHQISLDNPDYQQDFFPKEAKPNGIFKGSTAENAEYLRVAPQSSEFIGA
Compound,melting point [°C],IC50 [1] [µM],IC50 [2] [µM],IC50 [3] [µM],IC50 [4] [µM],IC50 [5] [µM],Inhibition Rate of tumor growth [6] [%],Tumor Weight [6] [g],Body Weight End [7] [g],Body Weight Initial [7] [g],Inhibition Rate of tumor growth ([6]; listed as Sorafenib) [%]
"COc1cc2ncnc(Oc3cccc(NC(=S)Nc4ccc(F)c(C(F)(F)F)c4)c3)c2cc1OC [Compound 10a, 1-[3-(6,7-Dimethoxyquinazolin-4-yloxy)phenyl]-3-(4-fluoro-3-trifluoromethylphenyl)thiourea]",130.5 to 133,38.1,16.9,0.19,0.04,37.4,–,–,–,–,–
"COc1cc2ncnc(Oc3cccc(NC(=S)Nc4ccc(Cl)c(C(F)(F)F)c4)c3)c2cc1OC [Compound 10b, 1-(4-Chloro-3-trifluoromethylphenyl)-3-[3-(6,7-dimethoxyquinazolin-4-yloxy)phenyl]thiourea]",–,17.7,6.11,0.05,0.02,9.13,49.22,0.65 ± 0.22,19.5 ± 3.0,18.9 ± 1.8,–
"COc1cc2ncnc(Oc3cccc(NC(=S)Nc4ccc(Br)c(C(F)(F)F)c4)c3)c2cc1OC [Compound 10c, 1-(4-Bromo-3-trifluoromethylphenyl)-3-[3-(6,7-dimethoxyquinazolin-4-yloxy)phenyl]thiourea]",–,22.4,9.68,0.18,0.05,10,–,–,–,–,–
"COc1cc2ncnc(Oc3cccc(NC(=S)Nc4cc(C(F)(F)F)cc(C(F)(F)F)c4)c3)c2cc1OC [Compound 10d, 1-(3,5-Ditrifluoromethylphenyl)-3-[3-(6,7-dimethoxyquinazolin-4-yloxy)phenyl]thiourea]",122.8 to 125.6,18.8,8.49,–,–,15,–,–,–,–,–
"COc1cc2ncnc(Oc3cccc(NC(=S)Nc4cccc(C(F)(F)F)c4)c3)c2cc1OC [Compound 10e, 1-(3-Trifluoromethylphenyl)-3-[3-(6,7-dimethoxyquinazolin-4-yloxy)phenyl]thiourea]",147.5 to 149.6,13.3,14.8,0.35,0.14,12.2,–,–,–,–,–
"COc1cc2ncnc(Oc3cccc(NC(=S)Nc4ccc(OC(F)(F)F)cc4)c3)c2cc1OC [Compound 10f, 1-(4-Trifluoromethoxyphenyl)-3-[3-(6,7-dimethoxyquinazolin-4-yloxy)phenyl]thiourea]",171.5 to 174,18.8,54,> 10,> 10,58.6,–,–,–,–,–
"COc1cc2ncnc(Oc3cccc(NC(=S)Nc4ccc(Cl)cc4Cl)c3)c2cc1OC [Compound 10g, 1-(2,4-Dichlorophenyl)-3-[3-(6,7-dimethoxyquinazolin-4-yloxy)phenyl]thiourea]",187.4 to 188.2,17.1,24.5,> 10,7.71,19.8,–,–,–,–,–
"COc1cc2ncnc(Oc3cccc(NC(=S)Nc4ccc(F)c(F)c4)c3)c2cc1OC [Compound 10h, 1-(3,4-Difluorophenyl)-3-[3-(6,7-dimethoxyquinazolin-4-yloxy)phenyl]thiourea]",181.3 to 184.1,16,19.4,7.06,4.88,49.5,–,–,–,–,–
"COc1cc2ncnc(Oc3cccc(NC(=S)Nc4ccc(Cl)cc4)c3)c2cc1OC [Compound 10i, 1-(4-Chlorophenyl)-3-[3-(6,7-dimethoxyquinazolin-4-yloxy)phenyl]thiourea]",198.3 to 201,22.1,27.4,> 10,4.17,> 100,–,–,–,–,–
"COc1cc2ncnc(Oc3cccc(NC(=S)Nc4ccc(F)cc4)c3)c2cc1OC [Compound 10j, 1-(4-Fluorophenyl)-3-[3-(6,7-dimethoxyquinazolin-4-yloxy)phenyl]thiourea]",168.5 to 170,23.6,34.1,7.11,5.9,89.7,–,–,–,–,–
"COc1cc2ncnc(Oc3cccc(NC(=S)Nc4ccc(C)cc4)c3)c2cc1OC [Compound 10k, 1-p-tolyl-3-[3-(6,7-dimethoxyquinazolin-4-yloxy)phenyl]thiourea]",138.4 to 140,26.5,> 100,> 10,> 10,> 100,–,–,–,–,–
"COc1cc2ncnc(Sc3cccc(NC(=S)Nc4ccc(F)c(C(F)(F)F)c4)c3)c2cc1OC [Compound 10l, 1-[3-(6,7-Dimethoxyquinazolin-4-ylsulfanyl)phenyl]-3-(4-fluoro-3-trifluoromethylphenyl) thiourea]",128.4 to 130,25,9.33,–,–,8.79,–,–,–,–,–
"COc1cc2ncnc(Sc3cccc(NC(=S)Nc4ccc(Cl)c(C(F)(F)F)c4)c3)c2cc1OC [Compound 10m, 1-(4-Chloro-3-trifluoromethylphenyl)-3-[3-(6,7-dimethoxyquinazolin-4-ylsulfanyl)phenyl] thiourea]",162.2 to 164,20.9,7.89,0.07,0.01,8.11,20.31,1.02 ± 0.36,20.9 ± 1.6,19.2 ± 2.1,–
"COc1cc2ncnc(Sc3cccc(NC(=S)Nc4ccc(OC(F)(F)F)cc4)c3)c2cc1OC [Compound 10n, 1-(4-Trifluoromethoxyphenyl)-3-[3-(6,7-dimethoxyquinazolin-4-ylsulfanyl)phenyl]thiourea]",138 to 139.3,32.4,68.4,> 10,> 10,64.5,–,–,–,–,–
"COc1cc2ncnc(Sc3cccc(NC(=S)Nc4cc(C(F)(F)F)cc(C(F)(F)F)c4)c3)c2cc1OC [Compound 10o, 1-(3,5-Ditrifluoromethylphenyl)-3-[3-(6,7-dimethoxyquinazolin-4-ylsulfanyl)phenyl]thiourea]",168.2 to 171,19,12.2,0.09,0.02,9.57,–,–,–,–,–
"COc1cc2ncnc(Sc3cccc(NC(=S)Nc4cccc(C(F)(F)F)c4)c3)c2cc1OC [Compound 10p, 1-(3-Trifluoromethylphenyl)-3-[3-(6,7-dimethoxyquinazolin-4-ylsulfanyl)phenyl]thiourea]",127.5 to 131,21,12.9,0.27,0.07,9.03,–,–,–,–,–
"COc1cc2ncnc(Sc3cccc(NC(=S)Nc4ccc(Cl)cc4Cl)c3)c2cc1OC [Compound 10r, 1-(2,4-Dichlorophenyl)-3-[3-(6,7-dimethoxyquinazolin-4-ylsulfanyl)phenyl]thiourea]",172.4 to 174,14.8,27.4,> 10,3.56,63.1,–,–,–,–,–
"COc1cc2ncnc(Sc3cccc(NC(=S)Nc4ccc(F)c(F)c4)c3)c2cc1OC [Compound 10s, 1-(3,4-Difluorophenyl)-3-[3-(6,7-dimethoxyquinazolin-4-ylsulfanyl)phenyl]thiourea]",128.2 to 130.4,30.5,42.2,5.14,3.17,> 100,–,–,–,–,–
"COc1cc2ncnc(Sc3cccc(NC(=S)Nc4ccc(Cl)cc4)c3)c2cc1OC [Compound 10t, 1-(4-Chlorophenyl)-3-[3-(6,7-dimethoxyquinazolin-4-ylsulfanyl)phenyl]thiourea]",124.8 to 126.1,26.4,57.6,6.93,2.86,23.1,–,–,–,–,–
"COc1cc2ncnc(Sc3cccc(NC(=S)Nc4ccc(F)cc4)c3)c2cc1OC [Compound 10u, 1-(4-Fluorophenyl)-3-[3-(6,7-dimethoxyquinazolin-4-ylsulfanyl)phenyl]thiourea]",152 to 153.2,21.3,61.2,6.62,5.35,27.3,–,–,–,–,–
"COc1cc2ncnc(Sc3cccc(NC(=S)Nc4ccc(C)cc4)c3)c2cc1OC [Compound 10v, 1-p-tolyl-3-[3-(6,7-dimethoxyquinazolin-4-ylsulfanyl)phenyl]thiourea]",163.1 to 165,28.9,> 100,> 10,> 10,83.2,–,–,–,–,–
"CNC(=O)c1cc(Oc2ccc(NC(=O)Nc3ccc(Cl)c(C(F)(F)F)c3)cc2)ccn1 [sorafenib, reference compound]",–,17.9,9.29,–,–,10.6,31.25,0.88 ± 0.46,21.3 ± 2.4,20.7 ± 2.1,31.25

# Reference: paper PMC5943947 (Molecules : A Journal of Synthetic Chemistry and Natural …, 2017)
